Measured values as given in patent US20240156765A1, “METHODS OF NEUROPROTECTION AND USES THEREOF” (UNIVERSITY OF TENNESSEE RESEARCH FOUNDATION, priority 2020, published 2024).

What was measured:
Dutch belted rabbits = assay: Single-drop IOP-lowering efficacy of PRG eye drop formulations; assay type: in vivo
Method: At 24 hours after dosing, IOP is still reduced by >20%.
Moreover, the combined effect of all three layers of our W/O/W ME is critical for enhancing the efficacy of PRG. […] Using this same model, we will evaluate our optimized formulations from Test 1.1.
Research Design and Methods: Dutch belted rabbits (Envigo Rabbitry; formerly Covance) will be used in this single-dose design study. Rabbits from this rabbitry can have higher baseline IOP values than those purchased from other rabbitries. Rabbits (equally balanced between males and females) will be acclimated to handling and IOP measurements for at least seven days before initiation of the study. Slit-lamp biomicroscopic and fundoscopic examinations will be performed before and after the study. Our top three formulations from Test 1.1 will be tested in this model using our methods^12. The IOP of both eyes will be measured using a rebound tonometer (Tono-Pen AVIA Vet, Reichert) immediately before the formulation application (baseline, 8 am) and at hourly time intervals after application until the IOP returns to baseline. Using a sterile micropipette tip, thirty microliters of the formulation containing PRG ME or blank control will be instilled topically into one eye of each rabbit, while the fellow eye will receive the formulation vehicle, and therefore serve as controls. Rabbits will be dosed daily at 8 am for 21 days, and IOP collected at 8 am (immediately pre-dosing) and at the time at which the maximum IOP reduction is measured (Tmax) using our methods^12. Curves similar to FIG. 16 will be generated. Biocompatibility of the antioxidant-containing formulations will be assessed using with slit lamp biomicroscopy as in FIG. 17. The person performing the studies will be blinded regarding which eye receives the medicated formation and which one receives the blank control for each rabbit. Assuming a power of 80%, and a marginal difference in IOP outcome of 30%, we estimate that this study will require 10 rabbits. We will also evaluate these formulations in C57Bl/6J (B6) mice and cynomolgus monkeys, which will allow for species confirmation and comparison.

[1] = test system: intraocular pressure (IOP); assay: IOP lowering by topically applied pregabalin without microemulsion (aqueous); assay type: in vivo
BXD29 mice = assay: Daily topical PRG ME in BXD29 mice (normal tension glaucoma model): IOP and optic nerve axons; assay type: in vivo
Text: Objective: An obstacle in this study is the in vivo assessment of any direct neuroprotective effects of PRG that are independent of IOP lowering. […] These characteristics make BXD29 ideal for evaluating the direct neuroprotective properties of PRG on RGCs by eliminating indirect effects that would be mediated through IOP reduction.
We have evidence to show, without wishing to be bound by theory, that topical dosing with our PRG ME is neuroprotective to RGC axons in the ON. We dosed BXD29 mice daily with PRG ME beginning at 5 weeks of age (FIG. 9A) before ON degeneration was marked. […] In contrast, ON from mice dosed with unmedicated ME had loss of axon profiles and increased areas of debris (FIG. 9C). The studies will evaluate the role of PRG as a RGC neuroprotectant and define its cellular mechanism of action.

[2] = PRG release from formulation; assay type: physicochemical; conditions: as an aqueous eye drop
CACNA2D1 = CACNA2D1 (Homo sapiens, UniProt P54289); conditions: listed as PRG; cited from earlier work
CACNA2D1, sequence (P54289 25-1103): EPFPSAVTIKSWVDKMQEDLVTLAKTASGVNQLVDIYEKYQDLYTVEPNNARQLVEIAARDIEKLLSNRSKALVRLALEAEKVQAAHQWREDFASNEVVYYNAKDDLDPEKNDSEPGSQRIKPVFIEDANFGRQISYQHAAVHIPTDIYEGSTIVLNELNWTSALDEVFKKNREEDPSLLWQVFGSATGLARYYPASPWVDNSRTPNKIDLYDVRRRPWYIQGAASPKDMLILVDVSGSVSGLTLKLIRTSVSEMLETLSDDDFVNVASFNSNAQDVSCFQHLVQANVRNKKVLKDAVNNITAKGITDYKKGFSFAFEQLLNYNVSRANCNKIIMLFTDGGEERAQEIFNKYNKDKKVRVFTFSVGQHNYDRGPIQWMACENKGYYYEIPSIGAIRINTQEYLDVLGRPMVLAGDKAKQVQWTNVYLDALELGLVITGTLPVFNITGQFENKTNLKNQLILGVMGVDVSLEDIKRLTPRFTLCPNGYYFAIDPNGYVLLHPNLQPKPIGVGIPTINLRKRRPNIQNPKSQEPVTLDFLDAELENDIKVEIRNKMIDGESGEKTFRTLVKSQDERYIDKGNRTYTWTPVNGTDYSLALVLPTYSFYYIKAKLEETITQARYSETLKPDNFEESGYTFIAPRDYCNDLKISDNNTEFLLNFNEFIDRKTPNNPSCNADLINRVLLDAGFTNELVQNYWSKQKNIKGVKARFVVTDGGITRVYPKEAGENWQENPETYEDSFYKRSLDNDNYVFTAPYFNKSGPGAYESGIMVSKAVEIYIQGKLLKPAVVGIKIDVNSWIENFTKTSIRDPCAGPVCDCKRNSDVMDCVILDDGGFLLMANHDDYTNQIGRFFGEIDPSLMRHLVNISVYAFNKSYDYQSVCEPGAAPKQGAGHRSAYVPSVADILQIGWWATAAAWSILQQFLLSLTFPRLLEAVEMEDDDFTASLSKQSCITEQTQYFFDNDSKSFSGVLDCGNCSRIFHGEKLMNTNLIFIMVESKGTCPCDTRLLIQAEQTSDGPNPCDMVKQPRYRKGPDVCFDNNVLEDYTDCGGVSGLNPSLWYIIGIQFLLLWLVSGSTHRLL

[3] = test system: γ-aminobutyric acid (GABA) receptors; conditions: cited from earlier work
[4] = not told; cited from earlier work
[5] = PRG in an oral solution; cited from earlier work
[6] = PRG in the absence of the ME (Carbopol 981 gel), single drop
[7] = topically applied PRG, aqueous / initial formulation without ME
[8] = topically applied PRG, aqueous / initial formulation without ME, listed as PRG

SMILES: CC(C)C[C@H](CN)CC(=O)O [pregabalin]
- AUC of IOP reduction (Dutch belted rabbits; PRG in the absence of the ME): 38 mmHg·hr
- IOP reduction (Dutch belted rabbits; [6]): 30%
- time at which IOP returns to baseline (Dutch belted rabbits; [6]): 10 h
- IOP lowering, dose dependence (Dutch belted rabbits; topical dosing with PRG, Dutch belted rabbits): dose dependent manner
- IOP lowering, dose dependence ([1]; topical dosing): dose dependent manner
- IOP reduction [1, 7]: 20%
- time at which IOP returns to baseline [1, 7]: ≤ 7 h
- IOP reduction [1, 8]: 17%
- time at which IOP returns to baseline [1, 8]: 6 h
- IOP lowering ([1]; without the microemulsion): about 20%
- time at which IOP returns to baseline ([1]; without the microemulsion): 8 to 10 h
- optic nerve (ON) axons (BXD29 mice; daily topical dosing for 6 weeks from 5 weeks of age): prevents degeneration of axons
- IOP response (BXD29 mice; topical dosing, up to 6 weeks daily): unresponsive
- PRG release time [2]: 3 h
- affinity for CACNA2D1 (CACNA2D1): high affinity and specificity
- binding to GABA receptors [3]: does not bind
- membrane permeability [4]: high
- chemical stability [5]: > 1 year
